Substitutions are numbered along the chain they refer to.
Legend:
[1] = target: T1, wild-type mAPA (Mus musculus, UniProt P16406); assay: Kinetic parameters of substrate hydrolysis by wild-type His-mAPA; type: biochemical; details: for Km / kcat: wild type mAPA
T1 construct: made in house; host or cells: stably transfected CHO-K1 cells
T1 sequence (P16406 1-945): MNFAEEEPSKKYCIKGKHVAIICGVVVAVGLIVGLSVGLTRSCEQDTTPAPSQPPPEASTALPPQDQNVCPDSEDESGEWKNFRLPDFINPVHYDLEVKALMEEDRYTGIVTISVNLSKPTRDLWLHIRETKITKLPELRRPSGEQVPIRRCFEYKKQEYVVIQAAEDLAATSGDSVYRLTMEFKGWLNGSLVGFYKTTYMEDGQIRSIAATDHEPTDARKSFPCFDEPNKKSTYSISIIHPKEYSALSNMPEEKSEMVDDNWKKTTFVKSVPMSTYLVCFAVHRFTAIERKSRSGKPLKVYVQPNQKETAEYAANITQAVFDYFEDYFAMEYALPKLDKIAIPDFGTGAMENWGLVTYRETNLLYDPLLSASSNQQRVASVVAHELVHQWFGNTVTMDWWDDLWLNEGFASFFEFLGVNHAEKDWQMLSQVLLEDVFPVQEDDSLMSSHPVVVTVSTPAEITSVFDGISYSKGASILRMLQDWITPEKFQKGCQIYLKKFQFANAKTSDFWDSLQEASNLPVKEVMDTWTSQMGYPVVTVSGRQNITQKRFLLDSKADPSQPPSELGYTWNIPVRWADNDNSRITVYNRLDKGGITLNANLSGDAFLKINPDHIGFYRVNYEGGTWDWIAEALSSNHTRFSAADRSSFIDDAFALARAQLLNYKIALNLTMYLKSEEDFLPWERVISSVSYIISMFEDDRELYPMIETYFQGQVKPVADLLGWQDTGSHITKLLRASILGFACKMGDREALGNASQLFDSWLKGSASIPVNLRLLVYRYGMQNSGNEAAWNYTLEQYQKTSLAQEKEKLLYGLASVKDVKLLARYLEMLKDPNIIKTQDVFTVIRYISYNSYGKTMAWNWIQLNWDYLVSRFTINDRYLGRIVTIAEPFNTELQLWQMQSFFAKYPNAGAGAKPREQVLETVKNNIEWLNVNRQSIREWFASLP
Experimental: (§1) Enzyme assays were carried out for wild-type and mutated His-mAPAs in 50 mM Tris-HCl buffer, pH 7.4, with or without 4 mM CaCl2, by monitoring the rate of hydrolysis of GluNA, as previously described. The sensitivity to Ca^2+ of purified wild-type and mutated His-mAPA was determinated by incubating 0.5 mM GluNA with 0 to 4 mM CaCl2 in a final volume of 100 μl of 50 mM Tris-HCl buffer, pH 7.4. All the assays were performed in black 96-well plates (solid black 96-well flat-bottomed non-treated plates with no lid; Corning Costar). All of the enzymatic studies were performed such that substrate hydrolysis rates were maintained below 10% (initial rate conditions). The kinetic curves were monitored by following the increase in fluorescence at 460 nm (lex = 330 nm), induced by the release of the β-naphthylamide fluorogenic part of the substrate by APA. Fluorescence signals were monitored by counting photons with a spectrophotometer (Fusion universal microplate analyser; Packard) equipped with a temperature control device and a plate shaker. The kinetic parameters (Km and kcat) were determined from Michaelis-Menten plots, using GraphPad Prism 4 software (GraphPad) with a final concentration of substrate (GluNA) from 0.005 to 5 mM with or without 4 mM Ca^2+. For evaluation of the substrate specificity of APA with or without 4 mM Ca^2+, the rate of hydrolysis of […] additional substrates, α-L-aspartate-β-naphthylamide (AspNA), α-L-alanine-β-naphthylamide (AlaNA) and basic α-L-lysine-β-naphthylamide (LysNA), was determined under the same experimental conditions as described for GluNA. The sensitivity of wild-type and mutated His-mAPAs to inhibition by [(3S)-3-amino-4-sulfanyl-butane-1-sulfonic acid] (EC33), glutamate-thiol (GluSH), glutamate-phosphonic-acid (GluPO3H2), methionine-thiol (MetSH) and lysine-thiol (LysSH) was determined by establishing dose-dependent inhibition curves for a final GluNA concentration of 0.5 mM in the presence or absence of 4 mM CaCl2. These compounds being linear competitive inhibitors, their Ki were calculated from the formula Ki = IC50/ (1+ [GluNA]/Km).

[2] = target: T2, R878K mutated mAPA (Mus musculus, UniProt P16406, R878K); assay: Kinetic parameters of substrate hydrolysis by R878K His-mAPA; type: biochemical
T2 construct: made in house; host or cells: stably transfected CHO-K1 cells
T2 sequence (P16406 1-945 R878K): T1 sequence (P16406 1-945) with R878K
Experimental: as §1

Row | Km ([1]; 4 mM Ca2+) [µM] | kcat ([1]; 4 mM Ca2+) [s⁻¹] | Km ([1]; no Ca2+) [µM] | kcat ([1]; no Ca2+) [s⁻¹] | Km ([2]; 4 mM Ca2+) [µM] | kcat ([2]; 4 mM Ca2+) | Km ([2]; no Ca2+) [µM] | kcat ([2]; no Ca2+) [s⁻¹] | increase of cleavage efficiency (kcat/Km) by addition of Ca2+ ([1]; wild-type APA, 4 mM Ca2+ vs no Ca2+) [fold] | decrease in the affinity of the enzyme for the substrate compared to wild-type (factor) ([2]; presence of Ca2+) | Compound
1 | 54 ± 1.4 | 68.1 ± 1.3 | 149 ± 15.6 | 10.4 ± 0.6 | 202 ± 5.7 | 42.2 ± 1.1 s⁻¹ | 3150 ± 328 | 0.2 ± 0.01 | – | – | N[C@@H](CC(=O)O)C(=O)Nc1ccc2ccccc2c1 [HAspβNA, α-L-aspartate-β-naphthylamide]
2 | 39.1 ± 3.9 | 81.7 ± 4.0 | 165 ± 13.5 | 13.9 ± 0.1 | 269 ± 5.1 | 135 ± 1.3 s⁻¹ | 12500 ± 1450 | 3.12 ± 0.4 | 25 | 6 | N[C@@H](CCC(=O)O)C(=O)Nc1ccc2ccccc2c1 [HGluβNA, α-L-glutamyl-β-naphthylamide]
3 | 321 ± 41 | 17.4 ± 0.6 | 394 ± 20 | 21.6 ± 0.5 | 821 ± 142 | 26.2 ± 1.5 s⁻¹ | 670 ± 25.2 | 27.1 ± 4.8 | – | – | C[C@H](N)C(=O)Nc1ccc2ccccc2c1 [HAlaβNA, α-L-alanine-β-naphthylamide]

Row | Compound | Km ([1]; 4 mM Ca2+) [µM] | kcat ([1]; 4 mM Ca2+) [s⁻¹] | Km ([1]; no Ca2+) [µM] | kcat ([1]; no Ca2+) [s⁻¹] | Km ([2]; 4 mM Ca2+) [µM] | kcat ([2]; 4 mM Ca2+) | Km ([2]; no Ca2+) [µM] | kcat ([2]; no Ca2+) [s⁻¹] | increase of cleavage efficiency (kcat/Km) by addition of Ca2+ ([1]; wild-type APA, 4 mM Ca2+ vs no Ca2+) [fold] | decrease in the affinity of the enzyme for the substrate compared to wild-type (factor) ([2]; presence of Ca2+)
4 | NCCCC[C@H](N)C(=O)Nc1ccc2ccccc2c1 [HLysβNA, α-L-lysine-β-naphthylamide] | 244 ± 29.5 | 25.8 ± 0.2 | 304 ± 49.7 | 16.4 ± 0.7 | 229 ± 16.2 | 24.4 ± 0.5^n.s s-1 | 336 ± 54.3 | 9.0 ± 0.5 | – | –
